{"source": "patent US20220288075A1", "about": "“METHOD AND COMPOSITION FOR TREATING PAIN” (ACADEMIA SINICA, priority 2019, published 2022)", "key": {"LPC16:0": {"test_system": "LPC16:0", "assay": "Serum LPC16:0 level in RISS mice at P0 by mass spectrometry", "format": "in vivo", "conditions": "darapladib 10 mg/kg i.p. once daily, P0, triple quadrupole MS, vs vehicle; FIG. 3N", "procedure": "Antioxidants: Systemic administration of NAC (200 mg/kg bodyweight, i.p.; Sigma-Aldrich) with Tempol (100 mg/kg bodyweight, i.p.; Sigma-Aldrich) or vehicle (phosphate buffered saline; PBS) was given 30 min before and after each RISS procedure at days 1, 3 and 4 (FIG. 3M)^48-50. A total of 6 doses of drug were given during the RISS protocol. Sensory testing was performed 1 hour after the last drug injection at P0 and at P4 and P7. PAF-AH inhibitors. Darapladib (Cayman, Ann Arbor, Mich.) was solubilized in DMSO: PBS containing 1% methyl-β-cyclodextrin (1:99) and given once daily by i.p. injection at 10 mg/kg body weight. Mice were randomly assigned to receive vehicle or darapladib for 5 consecutive days during RISS (FIG. 3M). […] Triple quadrupole mass spectrometry (QqQ MS) for absolute quantitative analysis of target lipids. Targeted analysis of LPC16:0, LPC18:0 and SM(d18:1/18:0) was measured by using an Agilent-1200 liquid chromatography system coupled to an Agilent-6410 QqQ MS with an ESI interface. […] Lipidomic profiling for relative quantitative analysis. Lipids were identified by comparing the LC/MS profiles of the metabolites of interest to that of a standard compound analyzed with identical conditions, and their relative abundance among samples was further evaluated. […] Collected data were processed with Progenesis QI (Waters) for lipid identification and relative quantitative analysis."}, "RISS mice": {"test_system": "RISS mice", "assay": "RISS (repeated and intermittent sound stress) model, sensory testing (von Frey, muscle withdrawal threshold, Hargreaves)", "format": "in vivo", "conditions": "darapladib 10 mg/kg i.p. once daily throughout the RISS procedure, vs vehicle; FIG. 3N", "excerpt": "Sound stressors were applied as described^14, 43 with modification. Mice were placed (3 per cage) in a 20×30×15 cm bedding cage, which was kept 25 cm below a speaker, inside a 40×50×35 cm sound-insulated box. A speaker emitted pure tones at 5 frequencies (5, 11, 13, 15 and 19 kHz) with random amplitudes varied over time for each frequency (0, 20, 60, 90, and 100 dB sound). Each tone stimulus lasted for 5 or 10 sec in random order, and mice were stimulated continuously without interval. The sound stressors continued for 30 min as a set. In the original SS (sound stress) protocol, a set of 30-min stimuli was given once a day on days 1, 3, and 4 (FIG. 1A)^14. The RISS model intensified the stress protocol by increasing the stimulus frequency: a set of sound stimulus was repeated every 3 hours for 6 times overnight (from 16:00 to 10:00), followed by resting silence for 6 hours (from 10:00 to 16:00). The procedure was repeated on days 1, 3, and 4 as for the SS protocol. The control groups were placed in similar chambers for 4 days without stress exposure. Both groups of mice had access to food and water freely during the stress period. After the stimulus procedure, mice were returned to their original home cages in the animal care facility. In both the SS and RISS protocols, the day after completing the stress stimuli is called P0; the post-stress day 1, P1; and so on. In the experimental design of the […] single-day stimuli of intermittent SS (SISS), the day after SISS is called P′0; the post-stress day 1, P′1; and so on.\nAnimals were placed on an elevated mesh platform, and a 0.2-mN von Frey filament was applied to the plantar surface of both hind paws. A positive response was defined as lifting, shaking, guarding, or licking paws when the stimulus was applied. For each paw, the filament was applied 5 times at 30-sec intervals.\nMice were placed individually in Acrylic cubicles mounted on a glass surface maintained at 30° C. The test was performed after acclimatization. The thermal stimulus of the radiant heat was then applied to the plantar surface of each hind paw. Each mouse was tested in three sequential trials with an interval of 2-3 min. The assay cutoff was set at 30 sec to prevent tissue damage. Paw withdrawal latencies were calculated as the mean of three measures.\nMuscle withdrawal thresholds were evaluated as described^46. […]\nAnalgesic drugs: Pregabalin (0.3, 1, 3 or 10 mg/kg bodyweight, i.p.; Toronto Research Chemicals), morphine (0.3, 1, 3 or 10 mg/kg bodyweight, i.p.), diclofenac (1, 3 or 10 mg/kg bodyweight, i.p.; Sigma-Aldrich) or vehicle (0.9% saline) was administered, and the effect of each drug was evaluated by testing 6 mice. […]"}}, "data": [{"smiles": "CCN(CC)CCN(Cc1ccc(-c2ccc(C(F)(F)F)cc2)cc1)C(=O)Cn1c(SCc2ccc(F)cc2)nc(=O)c2c1CCC2", "note": "[darapladib, N-[2-(diethylamino)ethyl]-2-{2-[(4-fluorobenzyl)sulfanyl]-4-oxo-4,5,6,7-tetrahydro-1H-cyclopenta[d]pyrimidin-1-yl}-N-{[4′-(trifluoromethyl)biphenyl-4-yl]methyl}acetamide]", "values": [{"measurement": "LPC16:0 production after RISS (serum level)", "setting": "LPC16:0", "value": "significantly reduced"}, {"measurement": "development of RISS-induced chronic hypersensitivity (von Frey test)", "setting": "RISS mice", "value": "prevented the development of chronic hypersensitivity"}]}]}
